Data on 21 molecules can be found in ChEMBL document CHEMBL5729568, “Ras inhibitors” (2023).

The nature of experiment [1]: (§1) Biochemical Assay: A variety of Ras proteins may be inhibited by compounds of the present invention (e.g., K-Ras, N-Ras, H-Ras, and mutants thereof at positions 12, 13 and 61, such as G12C, G12D, G12V, G12S, G13C, G13D, and Q61L, and others described herein). The purpose of this biochemical assay is to measure the ability of test compounds to covalently label nucleotide-loaded K-Ras isoforms. […] The sample is incubated at 25? C. for a time period of up to 24 hours prior to quenching by the addition of 10 uL of 5% Formic Acid. Quenched samples are centrifuged at 15000 rpm for 15 minutes in a benchtop centrifuge before injecting a 10 uL aliquot onto a reverse phase C4 column and eluting into the mass spectrometer with an increasing acetonitrile gradient in the mobile phase. Analysis of raw data may be carried out using Waters MassLynx MS software, with % bound calculated from the deconvoluted protein peaks for labeled and unlabeled K-Ras.

For experiment [2], the target named is T1, GTPase KRas (Homo sapiens, UniProt P01116). Description: (§2) The purpose of this biochemical assay is to measure the ability of test compounds to covalently label nucleotide-loaded K-Ras isoforms. […] Analysis of raw data may be carried out using Waters MassLynx MS software, with % bound calculated from the deconvoluted protein peaks for labeled and unlabeled K-Ras.

A short description of experiment [3]: as §1. This is another data set of the same source.
The nature of experiment [4]: as §1. The source holds these as a separate data set.
In experiment [5] the target is T1, GTPase KRas. Described as §2. This is another data set of the same source.
Experiment [6] can be described thus: as §1. The source holds these as a separate data set.
A short description of experiment [7]: as §1. This is another data set of the same source.
The target in a further experiment is GTPase NRas (Homo sapiens, UniProt P01111). The description is as §1.
Sequence of GTPase NRas (P01111 whole entry, looked up): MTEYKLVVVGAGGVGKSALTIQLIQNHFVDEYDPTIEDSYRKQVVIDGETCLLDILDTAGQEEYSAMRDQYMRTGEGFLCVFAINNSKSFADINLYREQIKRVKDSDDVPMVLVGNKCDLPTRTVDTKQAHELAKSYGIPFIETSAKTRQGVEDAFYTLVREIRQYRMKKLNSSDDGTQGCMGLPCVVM
The nature of experiment [8]: as §1. This is another data set of the same source.
Experiment [9] is described as follows: as §1. The source holds these as a separate data set.

Structures are written as SMILES.

Usually IC50 stands for the midpoint of a concentration-inhibition curve. On to `C=CC(=O)N1CC[C@H](C(=O)N(C)[C@H](C(=O)N[C@H]2Cc3cc(O)cc(c3)-c3ccc4c(c3)c(c(-c3cnccc3COC)n4CC)CC(C)(C)COC(=O)[C@@H]3CCCN(N3)C2=O)C(C)C)C1`, for which the IC50 entry in experiment [1] is “in the range around 550 nM”; at GTPase KRas [2], “in the range around 55 nM”.
`C=CC(=O)N1CC[C@H](C(=O)N(C)[C@H](C(=O)N[C@H]2Cc3cc(O)cc(c3)-c3ccc4c(c3)c(c(-c3ccc(C5CCN(C)CC5)nc3)n4CC)CC(C)(C)COC(=O)[C@@H]3CCCN(N3)C2=O)C(C)C)C1`: the IC50 entry at GTPase KRas [2] was “in the range around 550 nM”; in experiment [3] it was “in the range around 5500 nM”.
In the case of `C=CC(=O)N1CC[C@H](C(=O)N(C)[C@H](C(=O)N[C@H]2Cc3cc(O)cc(c3)-c3ccc4c(c3)c(c(-c3cccnc3CN(C)C)n4CC)CC(C)(C)COC(=O)[C@@H]3CCCN(N3)C2=O)C(C)C)C1`, the IC50 entry at GTPase KRas [2] is “in the range around 550 nM”; in experiment [3] it was “in the range around 5500 nM”.
`C=CC(=O)N1CC[C@H](C(=O)N(C)[C@H](C(=O)N[C@H]2Cc3cc(O)cc(c3)-c3ccc4c(c3)c(c(-c3ccccc3CN(C)C)n4CC)CC(C)(C)COC(=O)[C@@H]3CCCN(N3)C2=O)C(C)C)C1`: the IC50 result on GTPase KRas [2] was “in the range around 55 nM”.
In the case of `C=CC(=O)N1CC[C@H](C(=O)N(C)[C@H](C(=O)N[C@H]2Cc3cc(O)cc(c3)-c3ccc4c(c3)c(c(C3=C(COC)COCC3)n4CC)CC(C)(C)COC(=O)[C@@H]3CCCN(N3)C2=O)C(C)C)C1`, at GTPase KRas [2], the IC50 entry was “in the range around 55 nM”.
As to `C=CC(=O)N1CC[C@H](C(=O)N(C)[C@H](C(=O)N[C@H]2Cc3cc(O)cc(c3)-c3ccc4c(c3)c(c(-c3ccc5c(c3)CCN(C)C5)n4CC)CC(C)(C)COC(=O)[C@@H]3CCCN(N3)C2=O)C(C)C)C1`, the IC50 result on GTPase KRas [2] is “in the range around 550 nM”; in experiment [3] it was “in the range around 5500 nM”.
For `C=CC(=O)N1CC(C(=O)N(C)[C@H](C(=O)N[C@H]2Cc3cc(O)cc(c3)-c3ccc4c(c3)c(c(-c3cccnc3COC)n4CC)CC(C)(C)COC(=O)[C@@H]3CCCN(N3)C2=O)C(C)C)C1` the same measures were “in the range around 55 nM” and “in the range around 5500 nM”.
Take `C=CC(=O)N1CC[C@H](C(=O)N(C)[C@H](C(=O)N[C@H]2Cc3cc(O)cc(c3)-c3ccc4c(c3)c(c(-c3ncccc3COC)n4CC)CC(C)(C)COC(=O)[C@@H]3CCCN(N3)C2=O)C(C)C)C1`: the IC50 result (in experiment [4]; at GTPase KRas [2]) was “in the range around 5500 nM” throughout.
On to `CCn1c(-c2cccnc2COC)c2c3cc(ccc31)-c1cc(O)cc(c1)C[C@H](NC(=O)[C@H](C(C)C)N(C)C(=O)[C@H]1CCN(C(=O)C#CCN(C)C)C1)C(=O)N1CCC[C@H](N1)C(=O)OCC(C)(C)C2`, for which the IC50 result at GTPase KRas [5] was “in the range around 550 nM”.
For `CCn1c(-c2ccccc2CCOC)c2c3cc(ccc31)-c1cc(O)cc(c1)C[C@H](NC(=O)[C@H](C(C)C)N(C)C(=O)[C@H]1CCN(C(=O)C#CCN(C)C)C1)C(=O)N1CCC[C@H](N1)C(=O)OCC(C)(C)C2`, the IC50 entry in experiment [1] is “in the range around 550 nM”; in experiment [6], “in the range around 5500 nM”; at GTPase KRas [2] it was “in the range around 55 nM”; in [3], “in the range around 5500 nM”; at GTPase KRas [5], “in the range around 5500 nM”.
With `C=CC(=O)N1CC[C@H](C(=O)N(C)[C@H](C(=O)N[C@H]2Cc3cc(O)cc(c3)-c3ccc4c(c3)c(c(-c3nccnc3COC)n4CC)CC(C)(C)COC(=O)[C@@H]3CCCN(N3)C2=O)C(C)C)C1`, the IC50 result (in experiment [4]; at GTPase KRas [2]) was “in the range around 5500 nM” each time.
As to `CCn1c(-c2ccccc2COC)c2c3cc(ccc31)-c1cc(O)cc(c1)C[C@H](NC(=O)[C@H](C(C)C)N(C)C(=O)[C@H]1CCN(C(=O)/C=C/CN(C)C)C1)C(=O)N1CCC[C@H](N1)C(=O)OCC(C)(C)C2`, the IC50 entry at GTPase KRas [2] is “in the range around 55 nM”.
In the case of `C=CC(=O)N1CC[C@H](C(=O)N(C)[C@H](C(=O)N[C@H]2Cc3cc(O)cc(c3)-c3ccc4c(c3)c(c(-c3cccnc3COC)n4CC#N)CC(C)(C)COC(=O)[C@@H]3CCCN(N3)C2=O)C(C)C)C1`, the concentration for half-maximal inhibition (IC50) result on GTPase KRas [2] was “in the range around 55 nM”.
Consider `C=CC(=O)N1CC[C@H](C(=O)N(C)[C@H](C(=O)N[C@H]2Cc3cc(O)cc(c3)-c3ccc4c(c3)c(c(-c3cnn(C)c3)n4CC)CC(C)(C)COC(=O)[C@@H]3CCCN(N3)C2=O)C(C)C)C1`, for which the IC50 entry on GTPase KRas [2] is “in the range around 550 nM”; in [3], “in the range around 5500 nM”.
With `C=CC(=O)N1CC[C@H](C(=O)N(C)[C@H](C(=O)N[C@H]2Cc3cc(O)cc(c3)-c3ccc4c(c3)c(c(-c3ccc(CN(C)C)cc3COC)n4CC)CC(C)(C)COC(=O)[C@@H]3CCCN(N3)C2=O)C(C)C)C1`, the IC50 result at GTPase KRas [2] was “in the range around 55 nM”.
With `C=CC(=O)N1CC[C@H](C(=O)N(C)[C@H](C(=O)N[C@H]2Cc3cc(OC(=O)N(C)CC(=O)O)cc(c3)-c3ccc4c(c3)c(c(-c3ccccc3CCOC)n4CC)CC(C)(C)COC(=O)[C@@H]3CCCN(N3)C2=O)C(C)C)C1`, the IC50 entry at GTPase KRas [2] is “in the range around 550 nM”.
As for `C=CC(=O)N1CCN(C(=O)N(C)[C@H](C(=O)N[C@H]2Cc3cc(O)cc(c3)-c3ccc4c(c3)c(c(-c3ccccc3CN(C)C)n4CC)CC(C)(C)COC(=O)[C@@H]3CCCN(N3)C2=O)C(C)C)CC1`, the IC50 result (in experiment [1]; in experiment [6]; in experiment [3]; on GTPase KRas [5]) was “in the range around 550 nM” each time.
Regarding `CCn1c(-c2cccnc2C(C)OC)c2c3cc(ccc31)-c1cccc(c1)C[C@H](NC(=O)[C@H](C(C)C)N(C)C(=O)N1CCC13CN(C(=O)C#CC(C)(C)N(C)C)C3)C(=O)N1CCC[C@H](N1)C(=O)OCC(C)(C)C2` (stereo partly drawn), the IC50 entry is “in the range around 550 nM” in experiment [7]; “in the range around 55 nM” in experiment [4]; “in the range around 550 nM” in [1]; “in the range around 550 nM” at GTPase NRas; “in the range around 550 nM” in [6]; “in the range around 5500 nM” on GTPase KRas [2]. Moreover, the IC50 result in [3] was “in the range around 550 nM”; in [8], “in the range around 55 nM”; in experiment [9], “in the range around 550 nM”; on GTPase KRas [5], “in the range around 550 nM”.
Take `C=CC(=O)N1CCO[C@H]2CN(C(=O)N(C)[C@H](C(=O)N[C@H]3C[C@H]4CN(CCO4)c4ccc5c(c4)c(c(-c4cccnc4C(C)OC)n5CC)CC(C)(C)COC(=O)[C@@H]4CCCN(N4)C3=O)C(C)C)C[C@H]21` (stereo partly drawn): the half-maximal inhibitory concentration (IC50) result in experiment [7] was “in the range around 5500 nM”; in experiment [4], “in the range around 5500 nM”; in experiment [1], “in the range around 550 nM”; in experiment [6], “in the range around 5500 nM”; in experiment [3], “in the range around 5500 nM”; in experiment [8], “in the range around 550 nM”. Moreover, the IC50 in experiment [9] was > 10000 nM and in the range around 5500 nM.
`C=CC(=O)N1CC[C@H](C(=O)N(C)[C@H](C(=O)N[C@H]2Cc3cc(O)cc(c3)-c3ccc4c(c3)c(c(-c3cncc(CCN(C)C)c3)n4CC)CC(C)(C)COC(=O)[C@@H]3CCCN(N3)C2=O)C(C)C)C1`: the 50% inhibitory concentration (IC50) result is “in the range around 550 nM” at GTPase KRas [2] and “in the range around 5500 nM” in [3].
For the molecule `C=CC(=O)N1CC[C@H](C(=O)N(C)[C@H](C(=O)N[C@H]2C[C@H]3CN(CCO3)c3ccc4c(c3)c(c(-c3cccnc3C(C)OC)n4CC)CC(C)(C)COC(=O)[C@@H]3CCCN(N3)C2=O)C(C)C)C1` (stereo partly drawn), the IC50 in [7] was above 10000 nM; in experiment [4] it was above 10000 nM; in experiment [1], “in the range around 5500 nM”; in experiment [6], “in the range around 5500 nM”; in experiment [3], “in the range around 5500 nM”; in [8], “in the range around 550 nM”. Moreover, the half-maximal inhibitory concentration (IC50) in experiment [9] is above 10000 nM.
